Reference: PubChem BioAssay (NCI)
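96-well plates; 48 h exposure; 5 concentrations. Endpoints by linear interpolation between flanking doses. Not reached: highest tested concentration assigned. TGI: concentration producing complete growth inhibition.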

Columns and labels:
Test in all cases: NCI anticancer screen, dose series, 48 h
CCRF-CEM leukemia = system: CCRF-CEM leukemia
TK-10 renal = system: TK-10 renal
MDA-MB-435 = system: MDA-MB-435
IGROV1 ovarian = system: IGROV1 ovarian
K-562 leukemia = system: K-562 leukemia
OVCAR-8 ovarian = system: OVCAR-8 ovarian
NCI-H522 lung = system: NCI-H522 lung
SW-620 colon = system: SW-620 colon
KM12 colon = system: KM12 colon
PC-3 prostate = system: PC-3 prostate

Structure (SMILES) | TGI (CCRF-CEM leukemia) | TGI (TK-10 renal) | TGI (MDA-MB-435) | TGI (IGROV1 ovarian) | TGI (K-562 leukemia) | TGI (OVCAR-8 ovarian) | TGI (NCI-H522 lung) | TGI (SW-620 colon) | TGI (KM12 colon) | TGI (PC-3 prostate)
O=S(c1ccc(Cl)cc1)c1ccccc1C1=NCCN1 (stereo not drawn) | > 100 µM | > 100 µM | > 100 µM | > 100 µM | > 100 µM | > 100 µM | > 100 µM | > 100 µM | > 100 µM | > 100 µM
COc1cc(C2c3cc(OC)c(OC)c(O)c3C(=O)C3CCC(=O)N32)cc(OC)c1OC (stereo not drawn) |  | > 100 µM | 39.5 µM | > 100 µM | > 100 µM | 71.4 µM | 77.6 µM | > 100 µM | > 100 µM | > 100 µM
CC(=O)c1ccc2c3c1O[C@H]1c4[nH]c5ccccc5c4C[C@@]4(O)[C@@H](C2)N(CC2CC2)CC[C@]314 | 28.2 µM | 32.4 µM | 32.5 µM | 30.1 µM | 41.3 µM | 27.8 µM | 35.3 µM | 20.6 µM | 37.6 µM | 21.7 µM
Cc1ccc(N=C2SC(=NN(C)C)SC2=Nc2ccc(C)cc2)cc1 | > 100 µM | > 100 µM | > 100 µM | > 100 µM | > 100 µM | > 100 µM | > 100 µM | > 100 µM | > 100 µM | > 100 µM
CCOC1NC(/N=C/c2ccc(OC)cc2)=C(C#N)C1C#N (stereo not drawn) | 82.2 µM | > 100 µM | > 100 µM | > 100 µM | > 100 µM | > 100 µM | 47.8 µM | > 100 µM | > 100 µM | > 100 µM
COc1ccc(N2N=NN(C(C)C)/C2=C(/Cl)c2nnnn2-c2ccc(OC)cc2)cc1 | 4.24 µM | 30.1 µM | 25.5 µM | 28.7 µM | > 32.5 µM | 18 µM | 5.48 µM | 3.96 µM | 31.3 µM | 28.3 µM
COC1=CC(=O)c2nc3ccccc3c3ccnc1c23 | 13.8 µM | > 66.9 µM | 0.38 µM | 25.1 µM | > 100 µM | > 53.3 µM | 20.5 µM | 35.1 µM | > 43.3 µM | > 31.3 µM
CN(/N=C/c1ccc(Cl)cc1)C1=NCCCCN1 | > 100 µM | > 100 µM | > 100 µM | > 100 µM | > 100 µM | > 100 µM | > 100 µM | > 100 µM | > 100 µM | > 100 µM
C=CCOCn1ccc(N)nc1=O | > 100 µM | > 100 µM | > 100 µM | > 100 µM | > 100 µM | > 100 µM | > 100 µM | > 100 µM | > 100 µM | > 100 µM
COc1ccc(N2C(=O)C3c4[nH]c5ccccc5c4C4c5ccccc5CC4C3C2=O)cc1 (stereo not drawn) | > 100 µM | > 100 µM | > 100 µM | > 100 µM | > 100 µM | > 100 µM | > 100 µM | > 100 µM | > 100 µM | > 100 µM
N#Cc1c(N2CCCC2)nsc1Nc1ccc(F)cc1 | > 100 µM | > 100 µM | > 100 µM | > 100 µM | > 100 µM | > 100 µM | > 100 µM | > 100 µM | > 100 µM | > 100 µM
CN(C)C=NCC(O)c1ccccc1 (stereo not drawn) | > 100 µM | > 100 µM | > 100 µM | > 100 µM | > 100 µM |  | > 100 µM | > 100 µM | > 100 µM | > 100 µM
COc1cc2[nH]c(=O)c3cc(C)cc4c(Cl)nc(c1OC)c2c43 | > 100 µM | > 100 µM | > 100 µM | > 100 µM | > 100 µM | > 100 µM | > 100 µM | > 100 µM | > 100 µM | > 100 µM
Cc1ccc2c(=O)cc(Cc3csc4ccccc34)[nH]c2n1 | > 100 µM | > 100 µM | > 100 µM | 30.9 µM | > 100 µM | > 100 µM | 53.3 µM | > 100 µM | > 100 µM | > 100 µM
CCOC(=O)C(NC(=O)CC)(Nc1ccc(S(=O)(=O)Nc2ccc(OC)nn2)cc1)C(F)(F)F (stereo not drawn) | > 100 µM | > 100 µM | > 100 µM | > 100 µM | > 100 µM | > 100 µM | > 100 µM | > 100 µM | > 100 µM | > 100 µM
CCN(CC)c1ccc2cc(C(N)=O)c(=Nc3ccc(F)cc3)oc2c1 | > 100 µM | 44.7 µM | > 100 µM | > 100 µM | > 100 µM | > 100 µM | > 100 µM | > 100 µM | > 100 µM | > 100 µM
NCCS(=O)(=O)O | > 100 µM | > 100 µM | > 100 µM | > 100 µM | > 100 µM | > 100 µM | > 100 µM | > 100 µM | > 100 µM | > 100 µM
O=c1[nH]nc(Cc2ccc(Cl)cc2)n1/N=C/c1c[nH]c2ccccc12 | > 100 µM | > 100 µM | > 100 µM | > 100 µM | > 100 µM | > 100 µM | > 100 µM | > 100 µM | > 100 µM | > 100 µM
COc1ccc(Cn2c3ccc([N+](=O)[O-])cc3c(=O)n2Cc2ccccn2)cc1 | > 100 µM | > 100 µM | > 100 µM | > 100 µM | > 100 µM | > 100 µM | > 100 µM | > 100 µM | > 100 µM | > 100 µM
Cc1cc2oc3c(ccc(=O)n3C)c(=O)c2c(C)c1Cl | > 100 µM | > 100 µM | > 100 µM | > 100 µM | > 100 µM | > 100 µM | > 100 µM | > 100 µM | > 100 µM | > 100 µM
S=C(N/N=C(\C(=N/NC(=S)N1CCCCC1)c1ccccn1)c1ccccn1)N1CCCCC1 | 57.4 µM | > 100 µM | > 100 µM | > 100 µM | > 100 µM | > 100 µM | > 100 µM | > 100 µM | > 100 µM | > 100 µM
